The values that follow are results of earlier work, collected in patent publication US20030018166A1 (priority 2000, published 2003).

pKi: −log10 of the molar value. Read-outs that look alike come from different tables or passages of the source.

Broadly, the pKi is the negative decadic logarithm of the Ki, by convention in mol/L.

The target of the series is T1, M. avium ICL (UniProt P9WKK7).
T1 construct: The proteins were purified by the 6His-tag attached to the N terminus; fused on or other part: N-terminal 6His tag
T1 sequence (P9WKK7 1-428): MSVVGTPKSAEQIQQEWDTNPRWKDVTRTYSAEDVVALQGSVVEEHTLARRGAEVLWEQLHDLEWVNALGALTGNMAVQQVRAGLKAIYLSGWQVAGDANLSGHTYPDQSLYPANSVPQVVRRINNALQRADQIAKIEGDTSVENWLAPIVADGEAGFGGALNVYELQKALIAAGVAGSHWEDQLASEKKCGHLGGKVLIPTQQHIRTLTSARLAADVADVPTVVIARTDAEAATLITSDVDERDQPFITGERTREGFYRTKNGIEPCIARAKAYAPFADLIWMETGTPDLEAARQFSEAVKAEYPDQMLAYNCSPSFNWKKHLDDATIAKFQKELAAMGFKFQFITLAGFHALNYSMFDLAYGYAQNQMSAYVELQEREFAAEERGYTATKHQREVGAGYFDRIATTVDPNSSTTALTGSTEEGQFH
Conditions: Schloss and Cleland, 1982, cited from earlier work.

Turning to `O=C(O)CC[N+](=O)[O-]` [3-nitropropionate], for the setting “read-out: Ki”, the pKi is 5.52.

For the compound `O=C(O)C(=O)CBr` [bromopyruvate, 3-bromopyruvate], the pKi was 3.92.
